# Results: paper PMC8626825 (Virology, 2021)
# Experiments:
# [1] = cited from earlier work; for maximal accumulation in plasma: healthy patients given remdesivir, ref Jorgensen et al.; for maximal accumulation in plasma / concentration in bronchoalveolar aspirates: 2020; for concentration in bronchoalveolar aspirates: remdesivir treated COVID-19 patients, ref Pan et al.
# SARS-CoV-2 [2] = conditions: SOLIDARITY trial, ref Pan et al., 2020; cited from earlier work
# OC43 [3] = conditions: for effect of co-treatment on IC50 of remdesivir against OC43-induced CPE: co-treatment with remdesivir, 5 μM lapatinib or 10 μM doramapimod
# OC43 [4] = type: cell-based, human betacoronavirus (OC43); conditions: OC43, MRC5
# SARS-CoV-2 [5] = assay: SARS-CoV-2 RNA accumulation in MRC5-ACE2 cells; type: cell-based, SARS-CoV-2 isolate Hong Kong/VM20001061/2020
# SARS-CoV-2 [6] = assay: SARS-CoV-2-induced cytopathic effect in MRC5-ACE2 cells; type: cell-based
# SARS-CoV-2 N protein = SARS-CoV-2 N protein accumulation in MRC5-ACE2 cells; type: cell-based
# SARS-CoV-2 [7] = type: cell-based
# 3CLpro [8] = conditions: 2020, cited from earlier work
# 3CLpro [9] = conditions: ref Ghahremanpour et al., 2020; cited from earlier work
# SARS-CoV-2 [10] = conditions: ref Dittmar et al., 2021; cited from earlier work
# OC43 [11] = assay: OC43 viral RNA accumulation in MRC5 cells; type: cell-based, human betacoronavirus (OC43); conditions: MRC5, OC43, 24 hpi
# [12] = lapatinib, human patients, ref Spector et al., 2015
compound,measurement,setting,value
CCC(CC)COC(=O)[C@H](C)N[P@](=O)(OC[C@H]1O[C@@](C#N)(c2ccc3c(N)ncnn23)[C@H](O)[C@@H]1O)Oc1ccccc1 [remdesivir],maximal accumulation in plasma,[1],4 to 9 µM
same,concentration in bronchoalveolar aspirates,[1],not detectable
same,clinical effectiveness,SARS-CoV-2 [2],not clinically effective
same,IC50 of remdesivir against OC43-induced CPE,"OC43 [3]; remdesivir alone, MRC5",in the μM range
C#Cc1cccc(Nc2ncnc3cc(OCCOC)c(OCCOC)cc23)c1 [erlotinib],identified as hit in the screen,OC43 [4],not identified
CS(=O)(=O)CCNCc1ccc(-c2ccc3ncnc(Nc4ccc(OCc5cccc(F)c5)c(Cl)c4)c3c2)o1 [lapatinib],SARS-CoV-2 RNA accumulation,SARS-CoV-2 [5],dramatic reduction in viral RNA accumulation
same,dose of remdesivir required to abolish SARS-CoV-2 RNA accumulation,SARS-CoV-2 [5],dramatically reduce the dose of remdesivir required
same,inhibition of SARS-CoV-2 RNA replication,SARS-CoV-2 [5],"over 50,000 fold"
same,SARS-CoV-2-induced CPE,SARS-CoV-2 [6],blocked SARS-CoV-2-induced CPE
same,SARS-CoV-2 N protein accumulation,SARS-CoV-2 N protein,completely prevented SARS-CoV-2 N protein accumulation
same,dose of remdesivir required to abolish production of infectious virions,SARS-CoV-2 [7],dramatically reduce the dose of remdesivir required
same,concentration in tissue samples,[1]; [12],8 to 12 µM
same,plasma concentration in human patients,[1]; [12],1 to 3 µM
same,inhibition of 3CLpro activity,"3CLpro [8]; pre-print, ref Drayman et al.","could, in fact, inhibit the activity of 3CLpro"
same,inhibition of 3CLpro (experimental),3CLpro [8]; ref Ghahremanpour et al.,did not inhibit 3CLpro
same,in silico molecular docking result,3CLpro [9],"putative inhibitor of the SARS-CoV-2 protease, 3CLpro"
same,effect of co-treatment on IC50 of remdesivir against OC43-induced CPE,OC43 [3],reduced the IC50 of remdesivir into the sub-μM range
COc1cc2ncnc(Nc3ccc(F)c(Cl)c3)c2cc1OCCCN1CCOCC1 [gefitinib],identified as hit in the screen,OC43 [4],not identified
Cc1ccc(-n2nc(C(C)(C)C)cc2NC(=O)Nc2ccc(OCCN3CCOCC3)c3ccccc23)cc1 [doramapimod],SARS-CoV-2 RNA accumulation,SARS-CoV-2 [5],able to block SARS-CoV-2 RNA accumulation at a low μM concentration
same,dose of remdesivir required to abolish SARS-CoV-2 RNA accumulation,SARS-CoV-2 [5],dramatically reduce the dose of remdesivir required
same,SARS-CoV-2-induced CPE,SARS-CoV-2 [6],blocked SARS-CoV-2-induced CPE
same,SARS-CoV-2 N protein accumulation,SARS-CoV-2 N protein,completely prevented SARS-CoV-2 N protein accumulation
same,dose of remdesivir required to abolish production of infectious virions,SARS-CoV-2 [7],dramatically reduce the dose of remdesivir required
same,effect of co-treatment on IC50 of remdesivir against OC43-induced CPE,OC43 [3],reduced the IC50 of remdesivir into the sub-μM range
CCN(CCO)CCCC(C)Nc1ccnc2cc(Cl)ccc12 (stereo not drawn) [hydroxychloroquine],activity against SARS-CoV-2 in human lung epithelial cell lines,SARS-CoV-2 [10],ineffective
same,clinical effectiveness,SARS-CoV-2 [2],not clinically effective
C=CCNC1=C2C[C@@H](C)C[C@H](OC)[C@H](O)[C@@H](C)/C=C(\C)[C@H](OC(N)=O)[C@@H](OC)/C=C\C=C(/C)C(=O)NC(=CC1=O)C2=O [17-AAG],dose blocking OC43 viral RNA accumulation relative to remdesivir (fold less),OC43 [11],~10 fold
same,SARS-CoV-2 RNA accumulation,SARS-CoV-2 [5],only minimally reduced SARS-CoV-2 RNA accumulation
N#C[C@@]1(c2ccc3c(N)ncnn23)O[C@H](CO)[C@@H](O)[C@H]1O [GS-441524],maximal accumulation in plasma,[1],about 0.5 μM
same,concentration in bronchoalveolar aspirates,[1],~15 nM
